Consider four compounds from patent US5744453A, “Polyamine conjugates for treatment of infection” (priority 1996, dated 1998).

Structures are written as SMILES. Converted amounts (≈) assume the structure as drawn. Where two headings read alike, the source gives them in different places.

In data set [1] the test system is Pseudomonas aeruginosa 27853. Briefly: Determination of MIC against bacteria (Table 1), P. aeruginosa 27853. It is filed as cell-based. The conditions noted are these: read-out: minimum inhibitory concentration (MIC), P. aeruginosa 27853. The protocol: (§1) Antibiotic indicator strains Escherichia coli strain 25922, Enterococcus faecalis 29212, Pseudomonas aeruginosa 27853, and Staphylococcus aureus 29213 are obtained from the American Type Tissue Culture Collection (ATCC) in Rockville, Md. The cystic fibrosis isolate, Pseudomonas aeruginosa 39324, is also obtained from ATCC. Bacteria are routinely cultivated in cation-supplemented Mueller-Hinton broth (CAMHB) or agar at 37° C.
(§2) The minimum inhibitory concentration (MIC) of glycosylated and non-glycosylated steroidal polyamines for antibiotic indicator strains is determined by dissolving the test compounds in deionized water to a final concentration of 1 mg per mL. […] These solutions are sterilized by filtration through 0.22 micron syringe filters.
(§3) Stock solutions of individual compounds are serially diluted (two-fold) in sterile CAMHB in 96-well tissue culture dishes (Falcon) and inoculated with antibiotic indicator strains that are prepared as described below.
(§4) Antibiotic indicator strains are grown in 5 mL of CAMHB for 3-4 h at 37° C. with shaking (200 rpm) on a New Brunswick rotary shaker. Bacteria are adjusted to a turbidity that matched a 0.5 McFarland standard (ca. 10^8 CFU per mL) in sterile 0.85% saline. These bacterial suspensions are diluted 1:20 in sterile 0.85% saline and 10 μL (ca. […]) of each suspension is used to inoculate individual wells of a 96 well plate that contained different concentrations of the test compounds. Following inoculation, the plates are sealed with plastic tape, incubated for 24 h at 37° C. and visually inspected for bacterial growth. CAMHB inoculated with each of the antibiotic test strains and uninoculated CAMBH plus each of the test compounds served as positive and negative controls.

Data set [2] has as its system Escherichia coli strain 25922. Briefly: Determination of MIC against bacteria (Table 1), E. coli 25922. It is filed as cell-based. The conditions noted are these: read-out: minimum inhibitory concentration (MIC), E. coli 25922. The protocol:
as §1, §2, §3, §4

Data set [3] relates to Enterococcus faecalis 29212. Nature of the data set: Determination of MIC against bacteria (Table 1), E. faecalis 29212. The conditions noted are these: read-out: minimum inhibitory concentration (MIC), E. faecalis 29212. The format is cell-based. Here is the method: as §1, §2, §3, §4
Data set [4] is described as follows: Stability of a 5% solution of the trifluoroacetate salt at room temperature. It is filed as physicochemical. Here is the method:
(§5) To a solution of spermine (0.8 g, 2 mmol) and triethylamine (0.3 mL) in 5 mL of DMF is added dropwise the N-oxysuccinimidechenodeoxycholate (1.0 g, 2 mmol) in 5 mL of DMF. The mixture is stirred overnight at room temperature, then poured into DCM (100 mL). The precipitate of the hydroxysuccinimide is filtered, and the filtrate is evaporated to give a liquid phase, which is poured into water (100 mL). The precipitate of the product is obtained. It is dissolved in MeOH (5 mL) and passed through a CHP-20 reverse-phase column. A […] in water solvent system is used to elute the product. The solvent is removed by evaporation, and the residue is dissolved in 1 mL of trifluoroacetic acid. The resulting solution is diluted up to 10 mL with water, filtered, and the filtrate subsequently lyophilized to afford 0.9 g (50% yield) of a solid (m.p. 96°-100° C.). […] A 5% solution of the trifluoroacetate salt of the chenodeoxycholic acid-spermine conjugate is stable at room temperature over about 12-24 h, after which a precipitate of the base separates as a slurry. TLC (MeOH:i-PrNH2 :DCM 1:1:2) Rf 0.7. IR (KBr): 3406, 2939, 2869, 1778 (COOH), 1680 (CONH--), 1553, 1458, 1196, 834, 722 cm^-1. ^1 H NMR (D2 O): δ3.75 (s, 1H), 3.4 (s, 1H), 2.8-3.15 (m, 12H), 2.2-1.2 (m, 39H), 0.9 (d, 3H), 0.86 (s, 3H), 0.55 (s, 3H). Fab MS: (M+Na^+)=598. Anal. Calc. for C34 H64 N4 O3.3CF3 COOH: C 52.5; H 7.29; N 6.09. […]

In data set [5] the test system is Pseudomonas aeruginosa 39324. Briefly: Determination of MIC against bacteria (Table 1), P. aeruginosa 39324 (cystic fibrosis isolate). It is filed as cell-based. The conditions noted are these: read-out: minimum inhibitory concentration (MIC), P. aeruginosa 39324. Here is the method:
as §1, §2, §3, §4

For data set [6], the system named is Staphylococcus aureus 29213. Nature of the data set: Determination of MIC against bacteria (Table 1), S. aureus 29213. The format is cell-based. The conditions noted are these: read-out: minimum inhibitory concentration (MIC), S. aureus 29213. The protocol:
as §1, §2, §3, §4

The nature of another data set: Solubility in water. It is filed as physicochemical. The conditions noted are these: trifluoroacetate salt. The protocol: as §5
For the next data set, the system named is E. coli 25922. Nature of the data set: Augmentation assay: MIC of erythromycin (Table 2), E. coli 25922. The format is cell-based. The conditions noted are these: Escherichia coli, 25922, 24 h, read-out: MIC of erythromycin, E. coli 25922. The protocol: (§6) Stock solutions 1-2 mg/mL of test compounds are prepared in distilled water, filter-sterilized through a […] filter and diluted in CAMHB to the desired starting concentration. Aliquots of each test compound (0.1 mL), at 2× the final concentration, are added to the first rows of 96 well plates. The remaining wells of these plates are charged with 0.1 mL aliquots of each test compound at the desired final concentration. Subsequently, 0.1 mL of solutions of erythromycin, gentamicin, or vancomycin, prepared in CAMHB, are added to the first rows of these plates and serially diluted.
(§7) The wells are inoculated in duplicate with each of four antibiotic indicator strains prepared as described previously above. The final concentrations of antibiotics tested in these experiments range from 0.185-250 μg per mL. Plates containing each of the antibiotics serially diluted in CAMHB alone are also inoculated with antibiotic indicator strains to determine the MIC of erythromycin, gentamicin and vancomycin in the absence of the compounds of the invention. The plates are sealed with plastic tape, incubated in for 24 h at 37° C., visually inspected for bacterial growth. The MIC of erythromycin, gentamicin and vancomycin for each of the indicator strains in the presence or absence of test compound is subsequently determined.

Another data set deals with P. aeruginosa 39324. Nature of the data set: Augmentation assay: MIC of erythromycin (Table 2), P. aeruginosa 39324. The format is cell-based. The conditions noted are these: Pseudomonas aeruginosa, 39324, 24 h, read-out: MIC of erythromycin, P. aeruginosa 39324. The protocol:
as §6, §7

In the next data set the test system is P. aeruginosa 27853. Nature of the data set: Augmentation assay: MIC of erythromycin (Table 2), P. aeruginosa 27853. It is filed as cell-based. The conditions noted are these: Pseudomonas aeruginosa, 27853, 24 h, read-out: MIC of erythromycin, P. aeruginosa 27853. The protocol: as §6, §7
Where [7] appears, read: Pseudomonas aeruginosa, 27853, CAMHB, 24 h at 37° C., tested from 1.56 to 200 μg per mL.
Where [8] appears, read: Escherichia coli, 25922, CAMHB, 24 h at 37° C., tested from 1.56 to 200 μg per mL.
Setting [9] is: Enterococcus faecalis, 29212, CAMHB, 24 h at 37° C., tested from 1.56 to 200 μg per mL.
Setting [10] is: Pseudomonas aeruginosa, 39324, CAMHB, 24 h at 37° C., tested from 1.56 to 200 μg per mL.
[11] abbreviates: Staphylococcus aureus, 29213, CAMHB, 24 h at 37° C., tested from 1.56 to 200 μg per mL.

Regarding `C[C@H](CCC(=O)NCCCNCCCCNCCCN)[C@H]1CC[C@H]2[C@@H]3[C@H](O)C[C@@H]4C[C@H](O)CC[C@]4(C)[C@H]3CC[C@]12C` [Compound H, 3α,7α-dihydroxy-12-deoxy-5β-cholan-24-oic acid, N-(4,9-diaza-12-aminododecyl)amide], the MIC was 12.5 µg/mL (≈ 21.7 µM) in [1] (Pseudomonas aeruginosa, 27853, 24 h); 25 µg/mL (≈ 43.3 µM) in data set [2] (Escherichia coli, 25922, 24 h); 3.12 µg/mL (≈ 5.41 µM) in data set [3] (Enterococcus faecalis, 29212, 24 h); 50 to 100 µg/mL (≈ 86.7 to 173 µM) in data set [5] (Pseudomonas aeruginosa, 39324, 24 h); 6.25 µg/mL (≈ 10.8 µM) in [6] (Staphylococcus aureus, 29213, 24 h). Also, the “stability of 5% solution, time before a precipitate of the base separates” value in data set [4] was 12 to 24 h. Further, the solubility in water entry in “Solubility in water” is given as “soluble in water”.
As for `CC[C@H]1OC(=O)[C@H](C)[C@@H](O[C@H]2C[C@@](C)(OC)[C@@H](O)[C@H](C)O2)[C@H](C)[C@@H](O[C@@H]2O[C@H](C)C[C@H](N(C)C)[C@H]2O)[C@](C)(O)C[C@@H](C)C(=O)[C@H](C)[C@@H](O)[C@]1(C)O` [Erythromycin, erythromycin], the values for the MIC with E. coli 25922, with P. aeruginosa 39324 and in the data set on P. aeruginosa 27853 were 125 µg/mL, greater than 250 µg/mL and greater than 250 µg/mL, respectively.
Consider `NCCCNCCCCNCCCN` [spermine, N-[N-(3-aminopropyl)-4-aminobutyl]-1,3-diaminopropane, reference compound], for which the MIC in [1] (setting [7]) was greater than 200 µg/mL; in data set [2] (setting [8]), greater than 200 µg/mL; in data set [3] (setting [9]), greater than 200 µg/mL; in data set [5] (setting [10]), greater than 150 µg/mL; in data set [6] (setting [11]) it was greater than 200 µg/mL.
Consider `NCCNCCNCCNCCN` [tetraethylenepentamine, reference compound], for which the MIC was greater than 200 µg/mL in data set [1] (setting [7]); greater than 200 µg/mL in data set [2] (setting [8]); greater than 200 µg/mL in data set [3] (setting [9]); greater than 150 µg/mL in data set [5] (setting [10]); greater than 200 µg/mL in [6] (setting [11]).
